Earlier results on 91 compounds are cited in the CATMoS acute toxicity set (Mansouri et al. 2021).

Structures are written as SMILES. Several values for one entry are separate records, joined by “and”; a condition that tells them apart may be missing. Equal values may be shown once.

The series is described as follows: rat acute oral toxicity. As to conditions: in vivo.
Usually LD50 stands for the dose expected to kill half of the subjects tested. `Nc1nc2ccccc2o1`: the median lethal dose (LD50) was 600 mg/kg.
For `C=CCN(CC=C)c1c(C)cc(OC(=O)NC)cc1C`, the LD50 is 89 mg/kg.
For the compound `CCCCCC(=O)NO`, the LD50 is 3200 mg/kg.
Take `CCN(CC)C(=O)N[C@H]1C[C@@H]2c3cccc4[nH]cc(c34)C[C@H]2N(C)C1`: the median lethal dose (LD50) was 100 mg/kg.
As for `COC(=O)/C=C(\C)OP(=O)(OC)OC`, the LD50 was 3 mg/kg.
With `CC(C(=O)O)c1ccc2c(c1)Cc1cccnc1O2` (stereo unspecified), the LD50 is 59.5 mg/kg.
For the compound `FC(F)(F)c1nc2ccc(-c3ccccc3)cc2[nH]1`, the LD50 was 69 mg/kg.
Consider `CC[C@H]1C[C@H]2[C@@H]3CCC4=CC(=O)CC[C@@H]4[C@H]3CC[C@]2(C)[C@H]1O`, for which the LD50 is 12100 mg/kg.
Take `CNC(=O)Oc1ccccc1OC(CCl)OC` (stereo unspecified): the LD50 is 35.4 mg/kg.
`CCOc1ccc(C2CC(N(CC)CC)c3ccccc32)cc1` (stereo unspecified): the LD50 was 860 mg/kg.
In the case of `CCCCN(CCCC)N=O`, the LD50 was 1200 mg/kg.
With `CCCCCOC(CBr)c1ccc(C2CCCC2)cc1` (stereo unspecified), the LD50 is 250 mg/kg.
Regarding `Clc1ccc2ncoc2c1`, the LD50 was 791 mg/kg.
On to `CCOP(=S)(OCC)Oc1cc(C)c(SC)c(C)c1`, for which the LD50 was 375 mg/kg.
For `CCOC(=O)CSP(=O)(OCC)OCC`, the LD50 was 45 mg/kg.
As to `CS(=O)C(C)(C)CO` (stereo unspecified), the LD50 is 11300 mg/kg.
Turning to `CC(N)CSc1ccc(Cl)cc1` (stereo unspecified), the LD50 was 600 mg/kg.
For the compound `C1CN(SSSSN2CCOCC2)CCO1`, the LD50 was 4800 mg/kg.
Consider `Nc1cc(Cl)c(NC2=NCCN2)c(Cl)c1`, for which the LD50 is 38 mg/kg.
Regarding `Cc1cccc(C)c1NC(=O)C1(N(C)C)CCN(C2CCCCC2O)CC1` (stereo unspecified), the LD50 was 4.83 mg/kg.
Regarding `CC(=O)c1ccccc1[N+](=O)[O-]`, the LD50 was 1600 mg/kg.
For the compound `O=C(O)CNC(=O)c1ccc(Cl)cc1`, the LD50 is 2230 mg/kg.
For the compound `O=c1ccn(C2OC(COP(=O)(O)O)C(O)C2O)c(=O)[nH]1` (stereo unspecified), the LD50 was 12000 mg/kg.
As to `COc1ccccc1OCCOC(=O)c1ccccc1OC(C)=O`, the median lethal dose (LD50) was 2930 mg/kg.
`c1ccc2c(c1)CCCC2`: the LD50 is 2860 mg/kg.
Consider `Cc1cccc(N2CCN(CC=Cc3ccc4c(c3)CCC(=O)N4Cc3ccccc3)CC2)c1`, for which the LD50 was 500 mg/kg.
For the compound `CN(N=O)c1ccncc1`, the LD50 is 200 mg/kg.
As for `CCCCCCCCOC(CBr)c1ccc(C2CCCC2)cc1` (stereo unspecified), the LD50 was 250 mg/kg.
For `COc1ccc2c(c1)c(CC(=O)Oc1ccccc1C(=O)Oc1ccccc1C(=O)O)c(C)n2C(=O)c1ccc(Cl)cc1`, the LD50 is 63 mg/kg.
Consider `COC(=O)C1(O)c2ccccc2-c2ccc(Cl)cc21` (stereo unspecified), for which the LD50 is 3100 mg/kg.
As to `O=C1OC(CCN2CCCCC2)OC1(c1ccccc1)c1ccccc1` (stereo unspecified), the median lethal dose (LD50) is 1500 mg/kg.
`OC1OCC2C1C1(Cl)C(Cl)=C(Cl)C2(Cl)C1(Cl)Cl` (stereo unspecified): the LD50 was 1750 mg/kg.
As for `O=C(Nc1ccc(O)cc1)c1ccccc1O`, the LD50 was 6700 mg/kg.
Regarding `CC=CC=CC#N`, the LD50 was 712 mg/kg.
`C#CC(C)(CCC=C(C)C)OC(C)=O` (stereo unspecified): the LD50 is 9620 mg/kg.
Consider `NC1CCS(=O)(=O)C1` (stereo unspecified), for which the LD50 was 17900 mg/kg.
Consider `CCOC(=O)Cc1[nH]nc2ccc(Cl)cc12`, for which the LD50 is 4800 mg/kg.
Consider `CCCC=C(C=NCCCCCCCCCCCCCCCCCCCCC)CC`, for which the LD50 was 5320 mg/kg.
`CC(=O)CC(=O)Nc1ccc(Cl)cc1C`: the LD50 was 3500 mg/kg.
As to `CC(C)(S)[C@@H](N)C(=O)O`, the median lethal dose (LD50) is 6170 mg/kg.
Turning to `Cc1cc(C)c(S(=O)(=O)O)c(C)c1Nc1ccc(Nc2c(C)cc(C)c(S(=O)(=O)O)c2C)c2c1C(=O)c1ccccc1C2=O`, the LD50 was 3350 mg/kg.
Regarding `O=NN1CCCCC1`, the LD50 is 200 mg/kg.
`COc1cc(C(=O)OC2CCC(N3CCCCC3)CC2)cc(OC)c1OC` (stereo unspecified): the LD50 is 650 mg/kg.
Consider `CC(C)CCCCCOC(=O)COc1ccc(Cl)cc1Cl`, for which the LD50 was 982 mg/kg.
For `COc1cc(OC)n2nc(N)nc2n1`, the LD50 is 1030 mg/kg.
With `C1CCC2OCCOCCOCCOC3CCCCC3OCCOCCOCCOC2C1` (stereo unspecified), the LD50 is 75 mg/kg.
Turning to `C=C(C)C(=O)OCCN(CCOC(=O)C(=C)C)CCOC(=O)C(=C)C`, the LD50 is 11200 mg/kg.
Take `BrC=CBr`: the LD50 is 117 mg/kg and 62 mg/kg.
Turning to `CNCCCC12CC(c3ccccc31)c1ccccc12`, the LD50 is 1320 mg/kg.
For `Fc1ccc2nc(C(F)(F)F)[nH]c2c1`, the LD50 is 16.6 mg/kg.
In the case of `COc1ccc2c(c1)N(C[C@H](C)CN(C)C)c1ccccc1S2`, the LD50 is 1100 mg/kg.
For `Fc1c(Br)c(Cl)c2nc(C(F)(F)F)[nH]c2c1Br`, the LD50 was 6.28 mg/kg.
On to `C(=CNc1ccccc1)C=Nc1ccccc1`, for which the LD50 is 1130 mg/kg.
Turning to `COP(=O)(OC)Oc1ccc([N+](=O)[O-])c(C)c1`, the LD50 was 24 mg/kg.
As to `CCOC(=O)COC(=O)c1cc(Oc2ccc(C(F)(F)F)cc2Cl)ccc1[N+](=O)[O-]`, the LD50 is 1480 mg/kg.
With `CCN(CC)C(=O)c1cccc(OC)c1O`, the LD50 is 2080 mg/kg.
As for `COC(=O)Nc1cccc(OC(=O)Nc2cccc(C)c2)c1`, the LD50 was 4000 mg/kg.
Turning to `COC(=O)C=CC(=O)OC`, the LD50 is 2240 mg/kg.
Turning to `Nc1ccc(-c2ccc(N)c(Cl)c2)cc1Cl`, the median lethal dose (LD50) is 3820 mg/kg.
On to `O=NN(O)c1ccccc1`, for which the LD50 was 199 mg/kg and 490 mg/kg.
With `O=C(NCCN1CCOCC1)c1ccc(Cl)cc1`, the LD50 is 707 mg/kg.
Take `CCCCC[Si](OCC)(OCC)OCC`: the LD50 is 20000 mg/kg.
In the case of `Oc1cccc(Cl)c1-c1ccccc1`, the LD50 is 3500 mg/kg.
Take `CC(=O)Oc1ccc(C)cc1`: the LD50 was 1900 mg/kg.
Regarding `CNC(=O)Oc1c(C(C)C)ccc(C)c1Cl`, the median lethal dose (LD50) is 250 mg/kg.
For `CCOC(C1=NCC(C)(C)N1)c1ccccc1` (stereo unspecified), the LD50 is 510 mg/kg.
Take `Cc1c([N+](=O)[O-])cc(N)cc1[N+](=O)[O-]`: the LD50 is 959 mg/kg.
As for `CC(C)CC(C)CC(CC(C)C)OCCO` (stereo unspecified), the LD50 is 5650 mg/kg.
Turning to `CCCCCCCCc1ccc(-c2ccc(C#N)cc2)cc1`, the LD50 is 2200 mg/kg.
With `C=CC(C)(O)CCC=C(C)C` (stereo unspecified), the LD50 is 2790 mg/kg.
For the compound `ClCCO[SiH](OCCCl)OCCCl`, the LD50 is 190 mg/kg.
`Fc1ccccc1`: the 50% lethal dose (LD50) is 4400 mg/kg.
For the compound `CC(O)CNC(C)(C)Cc1ccc(Cl)cc1` (stereo unspecified), the 50% lethal dose (LD50) was 150 mg/kg.
Regarding `CC(=Cc1ccccc1)CC(=O)N(CCO)CCO`, the LD50 is 1500 mg/kg.
As for `C=C(C)C(=O)OC[Si]12OCCN(CCO1)CCO2`, the LD50 was 7950 mg/kg.
In the case of `CC1C(=NOC(=O)N(C)SC(Cl)(Cl)Cl)SCC(=O)N1C` (stereo unspecified), the LD50 was 3.54 mg/kg.
With `CCSC(SCC)c1ccccc1OC(=O)NC`, the LD50 was 500 mg/kg.
Regarding `CN(C)c1ccc(O)cc1`, the LD50 is 689 mg/kg.
Take `CN`: the LD50 was 1600 mg/kg.
In the case of `OC[C@H]1O[C@@H](n2cnc3c(S)ncnc32)[C@H](O)[C@@H]1O`, the 50% lethal dose (LD50) is 900 mg/kg.
For `Nc1nccs1`, the LD50 is 480 mg/kg.
`Oc1ccccc1S`: the 50% lethal dose (LD50) was 178 mg/kg.
With `CC(=O)Oc1c(C)ncc2c1COC(C(C)C)OC2` (stereo unspecified), the 50% lethal dose (LD50) is 2850 mg/kg.
`COP(=S)(OC)SCC(=O)N1CCOCC1`: the 50% lethal dose (LD50) was 190 mg/kg.
Turning to `C(=N\C(/N=C/c1ccco1)c1ccco1)/c1ccco1`, the median lethal dose (LD50) was 400 mg/kg.
In the case of `CC(C)CCCC(C)(C)O`, the LD50 was 6800 mg/kg.
For `Clc1cn[nH]c1`, the LD50 is 527 mg/kg.
Consider `Oc1ccc(O)c2[nH]c(C(F)(F)F)nc12`, for which the LD50 was 29 mg/kg.
As to `FC(F)(F)c1ccc(Cl)cc1Cl`, the LD50 was 2150 mg/kg.
As to `C#CCOc1cccc(OC(=O)NC)c1`, the LD50 was 150 mg/kg.
As for `C=CC(=O)NCOCCCC`, the LD50 was 1030 mg/kg.
